Experimental data as given in patent US7671054B1, “Reverse-turn mimetics and method relating thereto” (Choongwae Pharma Corporation, priority 2001, dated 2010).
Like-named read-outs stand apart in the source and are kept apart here.

Tests used:
HCT116 cells = test: Growth inhibition assay (MTS); format: cell-based; conditions: Homo sapiens, HCT116 cells, 48 hours treatment, MTS, read-out: Growth Inhibition (GI50, uM) HCT116
Description: (§1) SW480 or HCT116 cells were placed into 96 well microplate (10^4cells/well) and incubated for 24 hours at 37° C. 20 μl of [3-(4,5-dimethylthiazol-2-yl)-5-(3-carboxyphenyl)-2-(4-sulfophenyl)-2H-tetrazolium, inner salt](MTS) solution (Promega) was added into each well and the absorbance after 2 hour incubation at 37° C. (negative control) was read. And then, the cells were treated with TCF4 compound at various concentrations for 48 hours. 20 μl of MTS solution (Promega) was added into each well and incubated for 2 hour at 37° C. Cell viability was measured by reading the absorbance at 490 nm using a microplate reader (Molecular device) and cytotoxicity of a compound at each concentration was calculated.
as §1, with “a test” for “TCF4”

SW480 cells = test: Growth inhibition assay (MTS); format: cell-based; conditions: Homo sapiens, SW480 cells, 48 hours treatment, MTS, read-out: Growth Inhibition (GI50, uM) SW480
Description: as §1
as §1, with “a test” for “TCF4”

SMILES	GI50 (HCT116 cells; HCT-116, 48 h, Table 5) [µM]	GI50 (SW480 cells; SW480, 48 h, Table 5) [µM]	also measured
C=CCN1CC(=O)N2[C@@H](Cc3ccc(O)cc3)C(=O)N(Cc3cc(N(C)C(C)C)cc(C(F)(F)F)c3)C[C@@H]2N1C(=O)NCc1ccccc1 [Compound 126]	11.6 ± 3	19.4 ± 3	–
C=CCN1CC(=O)N2[C@@H](Cc3ccc(O)cc3)C(=O)N(Cc3cccc4c3OCCN4C)C[C@@H]2N1C(=O)NCc1ccccc1 [Compound 128]	1 ± 0.03	0.9 ± 0.1	–
CC(C)N(C)c1cc([C@@H](C)N2C[C@H]3N(C(=O)CN(C)N3C(=O)NCc3ccccc3)[C@@H](Cc3ccc(O)cc3)C2=O)ccc1F [Compound 39]	19.7 ± 3.3	22.8 ± 6.5	–
CN1CC(=O)N2[C@@H](Cc3ccc(O)cc3)C(=O)N(Cc3cccc4cccnc34)C[C@@H]2N1C(=O)NCc1ccccc1 [Compound 8]	< 0.3	< 0.3	–
C=CCN1CC(=O)N2C(Cc3ccc(O)cc3)C(=O)N(Cc3ccc(F)cc3F)CC2N1C(=O)NCc1ccccc1 (centres unmarked) [Compound 140]	1.7 ± 0.1	1.6 ± 0.5	–
C#CCN1CC(=O)N2[C@@H](Cc3ccc(O)cc3)C(=O)N(Cc3cccc4cccnc34)C[C@@H]2N1C(=O)NCc1ccccc1 [Compound 87]	0.5 ± 0.1	0.6 ± 0.2	–
C#CCN1CC(=O)N2[C@@H](Cc3ccc(O)cc3)C(=O)N(Cc3ccc(Cl)c(N4CCOCC4)c3)C[C@@H]2N1C(=O)NCc1ccccc1 [Compound 112]	4.7 ± 0.3	5.1 ± 0.5	–
CN1CC(=O)N2[C@@H](Cc3ccc(O)cc3)C(=O)N(Cc3ccc4ccccc4c3)C[C@@H]2N1C(=O)NCc1ccccc1 [Compound 9]	1.92	2.36	–
C=CCN1CC(=O)N2[C@@H](Cc3ccc(O)cc3)C(=O)N(Cc3ccc(F)cc3F)C[C@@H]2N1C(=O)NCc1ccc(Cl)c(Cl)c1 [Compound 149]	2.3 ± 0.4	2.3 ± 0.1	–
C=CCN1CC(=O)N2[C@@H](Cc3ccc(O)cc3)C(=O)N(Cc3cccc(N4CCOCC4)c3)C[C@@H]2N1C(=O)NCc1ccccc1 [Compound 99]	0.7 ± 0.1	1 ± 0.05	–
COC(=O)c1ccccc1Cn1ncc2c(CN3C[C@H]4N(C(=O)CN(C)N4C(=O)NCc4ccccc4)[C@@H](Cc4ccc(O)cc4)C3=O)cccc21 [Compound 74]	2.4 ± 0.3	1.3 ± 0.4	–
CCN(CC)c1cccc(CN2C[C@H]3N(C(=O)CN(C)N3C(=O)NCc3ccccc3)[C@@H](Cc3ccc(O)cc3)C2=O)c1 [Compound 26]	3.06	23.9	–
CN1CC(=O)N2[C@@H](Cc3ccc(O)cc3)C(=O)N(Cc3cccc(F)c3)C[C@@H]2N1C(=O)NCc1ccccc1 [Compound 11]	–	–	GI50 (HCT116 cells; HCT-116, Table 5): 1.3 µM; GI50 (SW480 cells; Table 5): 1.97 µM
CN1CC(=O)N2[C@@H](Cc3ccc(O)cc3)C(=O)N(Cc3ccc4cnn(Cc5ccccc5N)c4c3)C[C@@H]2N1C(=O)NCc1ccccc1 [Compound 61]	3.6 ± 0.3	11.3 ± 6	–
COc1ccccc1CN1C[C@H]2N(C(=O)CN(C)N2C(=O)NCc2ccccc2)[C@@H](Cc2ccc(O)cc2)C1=O [Compound 2]	2.23	2.58	–
CN(c1cccc(CN2C[C@H]3N(C(=O)CN(C)N3C(=O)NCc3ccccc3)[C@@H](Cc3ccc(O)cc3)C2=O)c1)C1CC1 [Compound 36]	12.7 ± 1.3	21.9 ± 2.3	–
C=CCN1CC(=O)N2[C@@H](Cc3ccc(O)cc3)C(=O)N(Cc3ccc(F)cc3F)C[C@@H]2N1C(=O)NCc1ccc(F)cc1 [Compound 145]	5.9 ± 0.3	6.4 ± 0.1	–
C=CCN1CC(=O)N2[C@@H](Cc3ccc(OP(=O)(O)O)cc3)C(=O)N(Cc3ccccc3)C[C@@H]2N1C(=O)NCc1ccccc1 [Compound 144]	–	–	GI50 (HCT116 cells; HCT-116, Table 5): 0.6 ± 0.1 µM; GI50 (SW480 cells; Table 5): 0.5 ± 0.03 µM
C=CCOC(=O)NCCCC[C@H]1C(=O)N(Cc2ccc(Cl)c(Cl)c2)C[C@H]2N1C(=O)CN(C)N2C(=O)NCc1ccccc1 [Compound 141]	21 ± 2.6	35 ± 11	–
C#CCN1CC(=O)N2[C@@H](Cc3ccc(O)cc3)C(=O)N(Cc3ccc(Cl)c(N(C)C)c3)C[C@@H]2N1C(=O)NCc1ccccc1 [Compound 83]	2.5 ± 0.1	2.3 ± 0.3	–
C=CC[C@@H]1CC(=O)N2[C@H](CN(Cc3cccc4cn[nH]c34)C(=O)[C@@H]2Cc2ccc(O)cc2)N1C(=O)NCc1ccccc1	–	–	GI50 (HCT116 cells; HCT-116, 48 h, Example 21): 2.3 µM; GI50 (SW480 cells; SW480, 48 h, Example 21): 2 µM
C=CCN1CC(=O)N2[C@@H](Cc3ccc(O)cc3)C(=O)N(Cc3cc(C)cc4c3N(C)CCO4)C[C@@H]2N1C(=O)NCc1ccccc1 [Compound 137]	1.3 ± 0.3	1.4 ± 0.4	–
CCCN1CC(=O)N2[C@@H](Cc3ccc(NC=O)cc3)C(=O)N(Cc3ccc(F)cc3F)C[C@@H]2N1C(=O)NCc1ccccc1 [Compound 130]	10.7 ± 1.7	17.3 ± 1.2	–
C#CCN1CC(=O)N2[C@@H](Cc3ccc(O)cc3)C(=O)N(Cc3cccc(N4CCOCC4)c3)C[C@@H]2N1C(=O)NCc1ccccc1 [Compound 91]	3.2 ± 0.2	1.5 ± 0.1	–
CN(C)c1cc(F)ccc1CN1C[C@H]2N(C(=O)CN(C)N2C(=O)NCc2ccccc2)[C@@H](Cc2ccc(O)cc2)C1=O [Compound 27]	1.13	11.7	–
C#CCN1CC(=O)N2[C@@H](Cc3ccc(O)cc3)C(=O)N(Cc3ccc(F)cc3F)[C@@H](C)[C@@H]2N1C(=O)NCc1ccccc1 [Compound 84]	–	–	GI50 (HCT116 cells; HCT-116, Table 5): 9.9 ± 1 µM; GI50 (SW480 cells; Table 5): 8.4 ± 1.1 µM
CC(C)N1CC(=O)N2[C@@H](Cc3ccc(O)cc3)C(=O)N(Cc3ccc(F)cc3F)C[C@@H]2N1C(=O)NCc1ccccc1 [Compound 146]	4 ± 0.5	3.7 ± 0.5	–
C=CCN1CC(=O)N2[C@@H](Cc3ccc(O)cc3)C(=O)N(Cc3ccc(Cl)c(N4CCOCC4)c3)C[C@@H]2N1C(=O)NCc1ccccc1 [Compound 111]	2.1 ± 0.2	2.7 ± 0.8	–

Now from value to molecule, other results behind:

GI50 (HCT116 cells; HCT-116, 48 h, Table 5) [µM]	GI50 (SW480 cells; SW480, 48 h, Table 5) [µM]	SMILES	also measured
25.2 ± 3.2	27.9 ± 4.7	C[C@@H](c1ccc(Cl)c2cccnc12)N1CC2N(C(=O)CN(C)N2C(=O)NCc2ccccc2)[C@@H](Cc2ccc(O)cc2)C1=O (some centres unmarked) [Compound 166]	–
0.7 ± 0.1	0.7 ± 0.4	C=CCN1CC(=O)N2[C@@H](Cc3ccc(O)cc3)C(=O)N(Cc3cccc(OC)c3OC)C[C@@H]2N1C(=O)NCc1ccccc1 [Compound 184]	–
1.7 ± 0.1	1.7 ± 0.2	C=CCN1CC(=O)N2[C@@H](Cc3ccc(O)cc3)C(=O)N(Cc3cccc(OC(F)(F)F)c3)C[C@@H]2N1C(=O)NCc1ccccc1 [Compound 176]	–
1.6 ± 0.1	1.8 ± 0.1	C=CCN1CC(=O)N2[C@@H](Cc3ccc(O)cc3)C(=O)N(Cc3ccccc3)C[C@@H]2N1C(=O)NCc1ccc(Cl)c(Cl)c1 [Compound 177]	–
2.9 ± 0.4	3 ± 0.3	C=CCN1CC(=O)N2[C@@H](Cc3ccc(O)cc3)C(=O)N(Cc3cccc(N(C)C(=O)CCCCC)c3)C[C@@H]2N1C(=O)NCc1ccccc1 [Compound 164]	–
1.1 ± 0.1	0.8 ± 0.1	C=CCN1CC(=O)N2[C@@H](Cc3ccc(O)cc3)C(=O)N(Cc3ccc(Cl)c4scnc34)C[C@@H]2N1C(=O)NCc1ccccc1 [Compound 193]	–
1.1 ± 0.1	1 ± 0.1	C=CCN1CC(=O)N2[C@@H](Cc3ccc(O)cc3)C(=O)N(Cc3cccc4scnc34)C[C@@H]2N1C(=O)NCc1ccc(Cl)c(Cl)c1 [Compound 180]	–
0.9 ± 0.1	0.8 ± 0.1	C=CCN1CC(=O)N2[C@@H](Cc3ccc(O)cc3)C(=O)N(Cc3cccc4c3OCO4)C[C@@H]2N1C(=O)NCc1ccccc1 [Compound 172]	–
1.2 ± 0.1	1 ± 0.2	C=CCN1CC(=O)N2[C@@H](Cc3ccc(O)cc3)C(=O)N(Cc3ccc4c(c3)OCCO4)C[C@@H]2N1C(=O)NCc1ccccc1 [Compound 157]	–
0.7 ± 0.2	0.7 ± 0.2	C=CCN1CC(=O)N2[C@@H](CN([C@H](C)c3ccccc3)C(=O)[C@@H]2Cc2ccc(O)cc2)N1C(=O)NCc1ccccc1 [Compound 154]	–
1.3 ± 0.7	1 ± 0.3	C=CCN1CC(=O)N2[C@@H](Cc3ccc(O)cc3)C(=O)N(Cc3cccc(N(C)C)c3)C[C@@H]2N1C(=O)NCc1ccccc1 [Compound 162]	–
3 ± 0.3	3.1 ± 0.4	C=CCN1CC(=O)N2[C@@H](Cc3ccc(O)cc3)C(=O)N(Cc3cccc4sc(C(=O)OCC)nc34)C[C@@H]2N1C(=O)NCc1ccccc1 [Compound 195]	–
1 ± 0.2	0.8 ± 0.1	C=CCN1CC(=O)N2[C@@H](Cc3ccc(O)cc3)C(=O)N(Cc3cccc4cccnc34)C[C@@H]2N1C(=O)NCc1ccc(Cl)c(Cl)c1 [Compound 169]	–
2.5 ± 0.1	3 ± 0.4	C=CCN1CC(=O)N2[C@@H](Cc3ccc(O)cc3)C(=O)N(Cc3cccc4c3OCC4)C[C@@H]2N1C(=O)NCc1ccccc1 [Compound 175]	–
10.1 ± 1.3	13.7 ± 0.5	C=CCN1CC(=O)N2[C@@H](Cc3ccc(O)cc3)C(=O)N([C@@H](C)c3cccc4cccnc34)C[C@@H]2N1C(=O)NCc1ccccc1 [Compound 160]	–
